Measurements as given in US20070112043A1, “Acylated and non-acylated imidazo[2,1-b]-1,3,4,-thiadiazole-2-sulfonamides, and uses thereof” (priority 2003, published 2007).
Values after ≈ are worked out from the molar mass of the structure shown. Values joined by “and” are separate entries in the source; they are usually repeats but may differ in a detail not shown here. Identical values can stand only once. Like-named read-outs stand apart in the source and are kept apart here.

Key:
[1] = system: 15 N (neuroblastoma); experiment: Clonogenic assay 15N; type: cell-based; details: compound 24 hours, colonies counted after 7-10 days, read-out: ED50 (the source's name)
Procedure: (§1) In this paradigm, Du145 prostate, HCT116 colon, 15N Neuroblastoma, IMR32 Neuroblastoma, Daoy Medulloblastoma, and MDAMB231 breast cells are individually plated and allowed to proliferate for 48 hours. Compound is added to the culture and left on for 24 hours, at which time both compound and dead cells are washed off the plate. Fresh media is added and the cells are allowed to grow for an additional 7-10 days. The remaining healthy cells reproduce and formed localized colonies. These colonies are counted and EC50 values are determined relative to non-treated controls.
(§2) Du145 prostate, HCT116 colon, 15N Neuroblastoma, IMR32 Neuroblastoma, Daoy Medulloblastoma, and MDAMB231 breast cells were plated in 6 well plates and allowed to grow for 5 days._Cells were exposed to compound for 24 hours, the culture media was removed and replaced with fresh media. The cells were kept in cultured for 7-10 days after which colonies were counted and EC50 values were determined relative to non-treated controls.

[2] = system: HCT116 (colon); experiment: Clonogenic assay HCT116; type: cell-based; details: compound 24 hours, colonies counted after 7-10 days, read-out: ED50 (the source's name)
Procedure: as §1, §2

[3] = Microsomal stability; type: in vitro ADME; details: 1 hr
[4] = system: MDAMB231 (breast); experiment: Clonogenic assay MDAMB231; type: cell-based; details: compound 24 hours, colonies counted after 7-10 days, read-out: ED50 (the source's name)
Procedure: as §1, §2

[5] = system: SCG neurons; details: cited from earlier work
[6] = system: 15N neuroblastoma cells; experiment: Alamar blue viability assay, 15N neuroblastoma; type: cell-based; details: for IC50: cellular viability after 48 hours, compound dissolved in DMSO
Procedure: In order to investigate the anti-cancer potential of compounds represented by formula I-a, 15N neuroblastoma cells lines were treated with compound and assayed for cellular viability after 48 hours. The cellular viability of 15N neuroblastomas treated with compounds 1, 5, 6, 11, and 13 (dissolved in DMSO) are summarized in Table 5 (see Compound 152).
Compounds were tested for anti-cancer properties using the Alamar blue viability assay. Daoy human medulloblastoma cells of 15N neuroblastoma cells were plated at a density of 5000 cells per well of a 96 well plate and cultured in RPMI media supplemented with antibiotics and 5% fetal bovine serum. Cells in culture were incubated with compound for 48 hours after which time Alamar blue was added to the culture media. After 4 hours media was transferred to opaque white plates and fluorescence of transformed alamar blue was measured at excitation 535/emission 595).

[7] = system: Daoy (medulloblastoma); experiment: Clonogenic assay Daoy; type: cell-based, human; details: compound 24 hours, colonies counted after 7-10 days, read-out: ED50 (the source's name)
Procedure: as §1, §2

[8] = system: motor neurons found in layer V of the cortex; details: drug concentration 1 μM; malonate; P1 rat motor cortex slices; cited from earlier work
[9] = system: IMR32 (neuroblastoma); experiment: Clonogenic assay IMR32; type: cell-based; details: compound 24 hours, colonies counted after 7-10 days, read-out: ED50 (the source's name)
Procedure: as §1, §2

[10] = system: Du145 (prostate); experiment: Clonogenic assay Du145; type: cell-based; details: compound 24 hours, colonies counted after 7-10 days, read-out: ED50 (the source's name)
Procedure: as §1, §2

[11] = system: Sprague Dawley rats; details: 10 mg/kg, cited from earlier work
[12] = system: RG neurons; details: intra-vitrial injection or SC 10 mg/kg, cited from earlier work
[13] = Pharmacokinetics of primary sulfonamides and Na salts (oral, SC); type: in vivo; details: gavage 10 mg/kg
Procedure: HPCD formulations of compounds represented by formula I also display improved pharmacokinetic properties as compared to compounds dissolved in water.
When compound 2 is administered at 10 mg/kg SC excellent plasma drug concentrations are observed_(Cmax=2.0 μg/mL, C1/2=0.8 hrs). […]

[14] = Solubility in water and formulations
Procedure: Alternatively, the sodium salt can be prepared in situ by dissolving the free acid in phosphate buffered saline (PBS) that has been buffered to a pH of 7.4. The solubility and stability of these solutions can be improved by the use of an aqueous soluble co-solvent such as, but not limited to HPCD. This solubility can be further improved by the addition of surfactants such as PEG 400. In general, the free acid is suspended in 10 wt/vol % HPDC (10 g dissolved in 100 mL water) and treated with 0.5M PBS (pH 7.4) such that the volumes are in a ratio of 75:25.

[15] = pH of formulation; type: physicochemical; details: PBS/HPCD (25:75) solution
From the text: (§3) This is illustrated for compound 15 in Table 7.

[16] = Conversion to primary sulfonamide in liver microsomes; type: in vitro ADME; details: after 60 minutes
Procedure: (§4) Compound 15 is converted to compound 1 in the presence of liver microsomes using the procedure described by Cresteil, T., et al. (Cresteil, T., et al. Am. Soc. Pharm. Exper. Therapeutics, 2002, 30, 438-445). Upwards of 50% conversion is observed after 60 minutes. When incubated with rat primary hepatocytes, the conversion of compounds 15, 37, and 44 to their respective primary sulfonamides, 1, 11, and 13, is observed.

[17] = log P; type: physicochemical
[18] = Conversion to primary sulfonamide in rat primary hepatocytes; type: in vitro ADME; details: 90 minutes
Procedure: as §4

[19] = Pharmacokinetics and in vivo conversion of N-acylsulfonamides in rats (SC); parameters: species or system rat; details: subcutaneously, 10 mg/mL
Procedure: When administered to rats subcutaneously, compound 15 (10 mg/mL) is well distributed (Cmax=20 μg/mL in plasma). Conversion of compound 15 to 1 is observed with plasma levels of 1 reaching a Cmax of 0.5-1 μg/mL. Conversion of compound 16 to compound 1 is observed with plasma levels of 1 reaching a Cmax of 3 μg/mL Similar in vivo conversion is observed for select compounds listed in table 5 with whole blood drug concentrations being similar to that of their respective primary sulfonamide sodium salts, represented by formula I-a, administered at the same dose in aqueous 10 wt/vol % HPCD.

[20] = Stability of solutions/formulations; type: physicochemical
From the text: as §3

[21] = Taxol induced cell death, read-out: Taxol SCG IC50
[22] = 250 μL 0.5 M PBS + 250 μL 10% HPCD + 500 μL 20% PEG 400

NS(=O)(=O)c1nn2cc(-c3ccc(-c4cccc(C(F)(F)F)c4)cc3)nc2s1 [Compound 11]
EC50 [1]: 0.75 µM | EC50 [2]: 1.5 µM | Microsomal Stability (1 hr) [3]: 60% | EC50 [4]: 1000 nM | IC50 [5, 21]: 2 µM | fold increase in activity over compound 1 ([6]; 15N neuroblastoma): 10 fold | IC50 [6]: 2 µM | EC50 [7]: 1000 nM

NS(=O)(=O)c1nn2cc(-c3ccc(Oc4ccc(Cl)cc4)cc3)nc2s1 [Compound 13]
protection of SMI-32 labeled motor neurons [8]: > 80% | EC50 [9]: 750 nM | Microsomal Stability (1 hr) [3]: 85% | IC50 [5, 21]: 3 µM | IC50 [6]: 10 µM | EC50 [10]: 8 µM

NS(=O)(=O)c1nn2cc(-c3ccccc3)nc2s1 [Compound 1]
weight gain ([11]; Taxol 9 mg/kg twice weekly for 3 weeks): normal weight gain | loss in foot pad contact ([11]; Taxol alone 46% loss): 23% | EC50 [1]: 7 µM | EC50 [2]: 12 µM | Microsomal Stability (1 hr) [3]: 90% | EC50 [4]: > 5000 nM | IC50 [5, 21]: 7 µM | IC50 ([5]; anti-NGF induced cell death, read-out: anit-NGF SCG IC50): 22 µM | IC50 ([5]; cisplatin induced cell death, read-out: cisplatin SCG IC50): 5 µM | IC50 ([5]; vincristine induced cell death, read-out: vincristine SCG IC50): 10 µM | histology of RG layer [12]: healthy RG layers | electro-retinogram (ERG) ([12]; versus vehicle): significant improvements | IC50 [6]: ~20 µM and 20 µM | EC50 [7]: > 5000 nM | EC50 [10]: 8 µM | oral bioavailability ([13]; CMC/Tween 80 (semi-)suspension): moderate | Cmax ([13]; aqueous 0.5 wt/vol % CMC/0.5 wt/vol % Tween 80 (semi-)suspension): 0.2 µg/mL

CC(=O)NS(=O)(=O)c1nn2cc(-c3ccccc3)nc2s1 [Compound 15]
dissolution ([14]; 25 mg in 1 mL PEG 400/ethanol (50:50) + ethanolamine (20 μL)): clear solution | clear solution concentration ([14]; 10 wt/vol % HPCD + 1 equiv of ethanolamine, dimethylaminoethanol or 4-aminopyridine): 5 to 10 mg/mL | solubility [14, 22]: 25 mg/mL | solubility ([14]; 250 μL 0.5 M PBS + 750 μL 10% HPCD): 10 mg/mL | Solubility in 10 wt/vol HPCD ([14]; PBS/HPCD (25:75) solution): 10 mg/mL (≈ 31 mM) | pH [15]: 7.4 | conversion to compound 1 [16]: > 50% | log P [17]: 2.6 | conversion rate to primary sulfonamide [18]: 6% | Cmax in plasma [19]: 20 µg/mL | Stability [20, 22]: >4 weeks | Stability ([20]; 1000 μL 0.5 M PBS): 1 to 2 days | Stability in 10 wt/vol HPCD ([20]; PBS/HPCD (25:75) solution): >4 weeks
